Measured values as given in ChEMBL document CHEMBL3046574, “Synthesis and Insecticidal Activity of 2-Alkoxy-4H-l,3,2-benzoxazaphosphorin-2-thiones” (1992).
Converted amounts (≈) assume the structure as drawn.

Columns and labels:
Type in all cases: functional
Laodelphax striatellus [1] = experiment: Insecticidal activity against Laodelphax striatella (small brown planthopper) assessed as mortality at 500 ppm by root soaking method
Spodoptera litura [2] = experiment: Insecticidal activity against Spodoptera litura assessed as mortality at 1000 ppm by leaf dipping method; details: foliar
Laodelphax striatellus [3] = experiment: Insecticidal activity against Laodelphax striatella (small brown planthopper) assessed as mortality at 50 ppm by root soaking method
Spodoptera litura [4] = experiment: Insecticidal activity against Spodoptera litura LC50 assessed as mortality by leaf dipping method; details: foliar

| SMILES | mortality at 500 ppm (Laodelphax striatellus [1]) [%] | mortality at 1000 ppm (Spodoptera litura [2]) [%] | mortality at 50 ppm (Laodelphax striatellus [3]) [%] | LC50 (Spodoptera litura [4]) [µg/mL] |
| --- | --- | --- | --- | --- |
| CCOP1(=S)Oc2ccc(Cl)cc2CN1CC(C)C (stereo not given) | 0 | 30 | – | – |
| CCOP1(=S)Oc2ccc([N+](=O)[O-])cc2CN1CC (stereo not given) | 0 | 0 | – | – |
| C=CCN1Cc2ccccc2OP1(=S)OC (stereo not given) | 97 | 93 | – | – |
| CCCN1Cc2cc(Cl)ccc2OP1(=S)OCC (stereo not given) | 0 | 0 | – | – |
| CCOP1(=S)Oc2ccccc2CN1C(C)C (stereo not given) | 43 | 90 | – | – |
| CCOP1(=S)Oc2ccc(Br)cc2CN1CC (stereo not given) | 0 | 27 | – | – |
| CCCN1Cc2ccccc2OP1(=S)OCC (stereo not given) | 40 | 73 | – | – |
| CCOP1(=S)Oc2ccccc2CN1CC (stereo not given) | 97 | 93 | – | – |
| COP1(=S)Oc2ccc(Br)cc2CN1CC(C)C (stereo not given) | 0 | 0 | – | – |
| CCCOP1(=S)Oc2ccc([N+](=O)[O-])cc2CN1CC (stereo not given) | 0 | 0 | – | – |
| CCCOP1(=S)Oc2ccc(Br)cc2CN1CC(C)C (stereo not given) | 0 | 0 | – | – |
| CCCOP1(=S)Oc2ccc(Cl)cc2CN1CC(C)C (stereo not given) | 0 | 0 | – | – |
| C=CCN1Cc2cc(Cl)ccc2OP1(=S)OCCC (stereo not given) | 0 | 13 | – | – |
| COP1(=S)Oc2ccc(Br)cc2CN1C(C)C (stereo not given) | 100 | 60 | 85 | – |
| CCOP1(=S)Oc2ccc([N+](=O)[O-])cc2CN1C(C)C (stereo not given) | 0 | 0 | – | – |
| CCOP1(=S)Oc2ccc(Br)cc2CN1CC(C)C (stereo not given) | 0 | 0 | – | – |
| CCOP1(=S)Oc2ccc(Br)cc2CN1C(C)C (stereo not given) | 100 | 63 | 87 | – |

| SMILES | mortality at 500 ppm (Laodelphax striatellus [1]) [%] | mortality at 1000 ppm (Spodoptera litura [2]) [%] | mortality at 50 ppm (Laodelphax striatellus [3]) [%] | LC50 (Spodoptera litura [4]) [µg/mL] |
| --- | --- | --- | --- | --- |
| C=CCN1Cc2ccccc2OP1(=S)OCC (stereo not given) | 50 | 50 | – | – |
| CCN1Cc2ccccc2OP1(=S)OC (stereo not given) | 83 | 97 | – | – |
| CCN1Cc2cc([N+](=O)[O-])ccc2OP1(=S)OC (stereo not given) | 0 | 0 | – | – |
| CCOP1(=S)Oc2ccc(Cl)cc2CN1C(C)C (stereo not given) | 87 | 33 | – | – |
| CCOP1(=S)Oc2cc(Br)c(Br)cc2CN1C(C)C (stereo not given) | 0 | 0 | – | – |
| C=CCN1Cc2cc(Br)ccc2OP1(=S)OCCC (stereo not given) | 0 | 0 | – | – |
| CCOP1(=S)Oc2cc(Cl)c(Cl)cc2CN1CC(C)C (stereo not given) | 0 | 57 | – | – |
| C=CCN1Cc2cc(Br)ccc2OP1(=S)OCC (stereo not given) | 0 | 20 | – | – |
| CCOC(=O)CC(SP(=S)(OC)OC)C(=O)OCC (stereo not given) [MALATHION] | 100 | 100 | 100 | 8.3 (≈ 25.1 µM) |
| CCCOP1(=S)Oc2cc(Cl)c(Cl)cc2CN1CC(C)C (stereo not given) | 0 | 17 | – | – |
| C=CCN1Cc2cc(Cl)ccc2OP1(=S)OCC (stereo not given) | 0 | 0 | – | – |
| CCOP1(=S)Oc2ccc(Cl)cc2CN1CC (stereo not given) | 10 | 20 | – | – |
| CCCOP1(=S)Oc2ccc(Cl)cc2CN1C(C)C (stereo not given) | 0 | 0 | – | – |
| C=CCN1Cc2cc(Br)ccc2OP1(=S)OC (stereo not given) | 0 | 18 | – | – |
| COP1(=S)Oc2ccc(Cl)cc2CN1C(C)C (stereo not given) | 73 | 40 | – | – |
| CNC(=O)Oc1ccccc1OC(C)C [PROPOXUR] | 100 | – | 16.1 | – |
